Patent US10398155B2, “Animal feed comprising a combination of mono glycerides” (Proviron Holding N.V., priority 2013, dated 2019)

Test system: Broiler chicken
Assay: Broiler growth test over 42 days with additives in animal feed or drinking water (AEW, FCR)
Assay type: in vivo
Settings: for D 0-42 AEW (average final weight of the broilers at day 42): Poor Feed day 0-13 then Rich Feed to day 42, average of 5 pens; for Ranking AEW 42 / Ranking FCR 42: compared to Rich feed standard test = 100%; for D 0-42 FCR (conversion of feed to chicken weight): lower is better
Experimental: Broiler chicken were grown during 42 days, with and without the abovementioned compositions being added to either the animal feed, or the drinking water.
By the end of the test period of 42 days, the final weight of the broiler was determined, this is the AEW (Average End Weight), as well as the degree of conversion of feed to chicken weight, this is the FCR (Feed Conversion Rate). The latter parameter indicates the amount of feed a broiler chicken should eat per kilogram of final weight of the animal. The lower this parameter, the more efficient the chicken has been fed. This parameter is influenced by the way the animal feed is digested by the intestinal tract or metabolism of the chicken, but also by the way the feed offered to the chicken is effectively accepted by the animal. The latter to a large extent is determined by the taste of the feed offered. To the extent the taste of the feed offered is positively acknowledged by the chicken, less feed is removed by the animal; so dependent on the taste of the feed, more or less of the feed is discarded by the chicken.
The tests were performed on groups of each time 20 broilers for each pen.
Each test was repeated on each time five pens, so each test was performed on in total 100 broilers.
Each value represents an average amount of the results obtained for each set of the five pens.
It is then added to the feed as a powdery compound. In practice it is much easier to mix such a powdery composition with the animal feed, as compared to the addition of a fluid to the feed. • The next two columns show the results of the test, expressed as final weight of the animal, in this case a broiler chicken. • The column with the heading D 0-42 AEW denotes the average final weight of the broilers at day 42 (Average End Weight). The higher the value for this parameter, the better. • The column with the title Ranking AEW 42 denotes, expressed as a percentage, the result of the test in terms of AEW, as compared to the standard test, corresponding to a standard value set at 100%. • The last two columns set forth the results of the test, expressed differently, namely as a measure for the conversion of the feed in meat-resp. increase of weight of the animal, as set forth above. • The column with the title D 0-42 FCR denotes the average value of the conversion of feed to weight of the animal. The lower the value for this parameter, the better. The lower the value, the more efficient the conversion of feed into animal meat has been performed. • The column with the heading Ranking FCR 42 denotes, expressed as a percentage, the result of the test with respect to FCR, as compared to the standard test, which has been allocated the value of 100%.
The feed that has been fed to the broilers in the various tests comprises two different embodiments: • a first type of feed is the so-called ‘Poor Feed’: this is a normal, customary feed that is being fed to the broilers, whereby no forced growth and feed conversion is to be expected, and whereby also no particular duty on the intestinal tract of the broilers is imposed. Differently phrased, the broilers have no difficulty in digesting this feed, and the younger broilers grow in a normal path to fully-grown adult animals. • a second type of feed is the so-called ‘Rich Feed’: this is a feed particularly high in energy and proteins, to which a component has been added that results in a more viscous intestine content. The result of the use of this type of feed is that the growth of the broilers is intensified, but it also results in a heavier load on the intestinal tract. So the intestines of the broilers should work harder to fully digest the feed absorbed by the animal. In this case the risk of disturbing the bacterial balance in the intestinal tract is substantially higher. Such an imbalance in bacteria (dysbacteriosis) may be a cause of diseases with resulting adverse effects. […]

[1] = via drinking water, dosage 2.22 Kg/Ton
[2] = TVN 5 mg/KgLW via drinking water, dosage 0.04 Kg/Ton

CCCCCCCCCCCC(=O)OCC(O)CO (centres unmarked) [Comp 1, monolaurin]
D 0-42 AEW (average final weight of the broilers at day 42) (dosage 1.2 Kg/Ton of feed): 2.55 kg | Ranking AEW 42 (dosage 1.2 Kg/Ton of feed): 97% | Ranking FCR 42 (dosage 1.2 Kg/Ton of feed): 104.6% | D 0-42 FCR (conversion of feed to chicken weight) (dosage 1.2 Kg/Ton of feed, day 0-42): 1.74 | D 0-42 AEW (average final weight of the broilers at day 42) (dosage 2.4 Kg/Ton of feed): 2.65 kg | Ranking AEW 42 (dosage 2.4 Kg/Ton of feed): 101% | Ranking FCR 42 (dosage 2.4 Kg/Ton of feed): 101.3% | D 0-42 FCR (conversion of feed to chicken weight) (dosage 2.4 Kg/Ton of feed, day 0-42): 1.69

CCCC(=O)OCC(O)CO (centres unmarked) [Comp 4, monobutyrin]
D 0-42 AEW (average final weight of the broilers at day 42) (dosage 2 Kg/Ton of feed): 2.68 kg | Ranking AEW 42 (dosage 2 Kg/Ton of feed): 102% | Ranking FCR 42 (dosage 2 Kg/Ton of feed): 97.9% | D 0-42 FCR (conversion of feed to chicken weight) (dosage 2 Kg/Ton of feed, day 0-42): 1.63 | D 0-42 AEW (average final weight of the broilers at day 42) (dosage 4 Kg/Ton of feed): 2.63 kg | Ranking AEW 42 (dosage 4 Kg/Ton of feed): 100% | Ranking FCR 42 (dosage 4 Kg/Ton of feed): 101.9% | D 0-42 FCR (conversion of feed to chicken weight) (dosage 4 Kg/Ton of feed, day 0-42): 1.70 | D 0-42 AEW (average final weight of the broilers at day 42) [1]: 2.65 kg | Ranking AEW 42 [1]: 101% | Ranking FCR 42 [1]: 98.6% | D 0-42 FCR (conversion of feed to chicken weight) (via drinking water, dosage 2.22 Kg/Ton, day 0-42): 1.64

CC[C@H]1OC(=O)C[C@@H](OC(C)=O)[C@H](C)[C@@H](O[C@@H]2O[C@H](C)[C@@H](O[C@H]3C[C@@](C)(O)[C@@H](OC(=O)CC(C)C)[C@H](C)O3)[C@H](N(C)C)[C@H]2O)[C@@H](CC=O)C[C@@H](C)C(=O)/C=C/C(C)=C/[C@@H]1CO[C@@H]1O[C@H](C)[C@@H](O)[C@@H](OC)[C@H]1OC [Ref 3, Tylvalosin]
average increase in weight per day of the broilers (Rich Feed with addition of TVN): 66.3 gr | D 0-42 AEW (average final weight of the broilers at day 42) [2]: 2.79 kg | Ranking AEW 42 [2]: 106% | Ranking FCR 42 [2]: 96.6% | Ranking AEW 42 (TVN 5 mg/KgLW via drinking water, dosage 0.04 Kg/Ton, listed as Tylvalosin): 105.53% | D 0-42 FCR (conversion of feed to chicken weight) (TVN 5 mg/KgLW via drinking water, dosage 0.04 Kg/Ton, entire period day 0-42): 1.61
